Results published in patent US11634396B2 (priority 2021, dated 2023).
Read-outs that look alike come from different tables or passages of the source.

Legend:
human mOR = human mOR (Homo sapiens (Human), UniProt P35372); assay: cell-based
human dOR = human dOR (Homo sapiens (Human), UniProt P41143); assay: cell-based
[1] = dOR cAMP Agonist Assay EC50, CHO Tag-lite human dOR stable cell line, forskolin
[2] = CHO Tag-lite human mOR stable cell line, forskolin 4 μM and DAMGO at EC90, read-out: mOR cAMP Antagonist Assay IC50

Sequence of human dOR (P41143 whole entry): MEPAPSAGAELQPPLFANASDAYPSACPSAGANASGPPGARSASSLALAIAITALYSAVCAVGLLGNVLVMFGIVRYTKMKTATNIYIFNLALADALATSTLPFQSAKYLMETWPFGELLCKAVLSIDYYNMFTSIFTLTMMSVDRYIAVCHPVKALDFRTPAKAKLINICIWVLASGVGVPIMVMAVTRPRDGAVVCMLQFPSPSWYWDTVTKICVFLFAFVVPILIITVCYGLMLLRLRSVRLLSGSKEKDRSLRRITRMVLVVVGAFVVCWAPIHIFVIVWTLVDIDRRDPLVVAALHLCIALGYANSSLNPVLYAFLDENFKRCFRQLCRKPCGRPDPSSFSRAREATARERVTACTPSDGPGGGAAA
Sequence of human mOR (P35372 whole entry): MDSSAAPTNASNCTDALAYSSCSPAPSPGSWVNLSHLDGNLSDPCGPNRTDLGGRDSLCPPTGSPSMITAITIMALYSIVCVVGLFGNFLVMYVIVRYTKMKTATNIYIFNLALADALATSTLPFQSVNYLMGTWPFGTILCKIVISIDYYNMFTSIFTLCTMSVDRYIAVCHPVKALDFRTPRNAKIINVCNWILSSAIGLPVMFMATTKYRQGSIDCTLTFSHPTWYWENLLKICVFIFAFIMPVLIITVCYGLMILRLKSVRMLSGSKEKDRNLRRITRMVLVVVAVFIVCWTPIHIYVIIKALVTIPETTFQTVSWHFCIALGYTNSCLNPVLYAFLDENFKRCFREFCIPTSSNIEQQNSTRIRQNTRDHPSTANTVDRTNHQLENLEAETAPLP

| SMILES | IC50 (human mOR) | EC50 (human dOR; [1]) | IC50 (human mOR; [2]) | IC50 (human mOR; read-out: mOR cAMP Antagonist Assay IC50) | EC50 (human dOR; read-out: dOR cAMP Agonist Assay EC50) |
| --- | --- | --- | --- | --- | --- |
| C[C@@H](CC(=O)NC[C@H](Cc1ccc2c(c1)OCC(=O)N2)N(C)C)c1ccccc1 [Compound 187, (S)-N-((S)-2-(dimethylamino)-3-(3-oxo-3,4-dihydro-2H-benzo[b][1,4]oxazin-7-yl)propyl)-3-phenylbutanamide] | < 300 nM | < 300 nM |  |  |  |
| CC(C)C[C@@H](CC(=O)NC[C@H](Cc1ccc2[nH]ncc2c1)N(C)C)c1ccccc1 [Compound 214, (S)-N-((S)-2-(dimethylamino)-3-(1H-indazol-5-yl)propyl)-5-methyl-3-phenylhexanamide] |  | < 300 nM | < 300 nM |  |  |
| C[C@H](CC(=O)NC[C@H](Cc1ccc2[nH]ncc2c1)N(C)C)c1cccc(F)c1 [Compound 215, (R)-N-((S)-2-(dimethylamino)-3-(1H-indazol-5-yl)propyl)-3-(3-fluorophenyl)butanamide] |  | 300 to 3000 nM | < 300 nM |  |  |
| C[C@@H](CC(=O)NC[C@H](Cc1ccc2[nH]ncc2c1)N(C)C)c1ccccn1 [Compound 216, (S)-N-((S)-2-(dimethylamino)-3-(1H-indazol-5-yl)propyl)-3-(pyridin-2-yl)butanamide] |  | 300 to 3000 nM | < 300 nM |  |  |
| Cc1ccc([C@@H](C)CC(=O)NC[C@H](Cc2ccc3[nH]ncc3c2)N(C)C)cc1 [Compound 217, (S)-N-((S)-2-(dimethylamino)-3-(1H-indazol-5-yl)propyl)-3-(p-tolyl)butanamide] |  | 300 to 3000 nM | < 300 nM |  |  |
| C[C@@H](CC(=O)NC[C@H](Cc1ccc2[nH]ncc2c1)N(C)C)c1ccc(F)cc1 [Compound 218, (S)-N-((S)-2-(dimethylamino)-3-(1H-indazol-5-yl)propyl)-3-(4-fluorophenyl)butanamide] | < 300 nM | > 3000 nM |  |  |  |
| CC(C)[C@@H](CC(=O)NC[C@H](Cc1ccc2[nH]ncc2c1)N(C)C)c1ccccc1 [Compound 219, (R)-N-((S)-2-(dimethylamino)-3-(1H-indazol-5-yl)propyl)-4-methyl-3-phenylpentanamide] |  | 300 to 3000 nM | < 300 nM |  |  |
| C[C@@H](CC(=O)NC[C@H](Cc1ccc2[nH]ncc2c1)N(C)C)c1ccc(Cl)cc1 [Compound 220, (S)-3-(4-chlorophenyl)-N-((S)-2-(dimethylamino)-3-(1H-indazol-5-yl)propyl)butanamide] | < 300 nM | > 3000 nM |  |  |  |
| CN(C)[C@H](CNC(=O)CC(C)(C)c1ccccc1)Cc1ccc2[nH]ncc2c1 [Compound 221, (S)-N-(2-(dimethylamino)-3-(1H-indazol-5-yl)propyl)-3-methyl-3-phenylbutanamide] | < 300 nM | > 3000 nM |  |  |  |
| CN(C)[C@H](CNC(=O)C[C@H](c1ccccc1)C1CC1)Cc1ccc(O)cc1Cl [Compound 263, (S)-N-((S)-3-(2-chloro-4-hydroxyphenyl)-2-(dimethylamino)propyl)-3-cyclopropyl-3-phenylpropanamide] | < 300 nM | < 300 nM |  |  |  |
| CC(=O)Oc1ccc(C[C@@H](CNC(=O)C[C@H](C)c2ccccc2)N(C)C)cc1Cl [Compound 275, 2-chloro-4-((S)-2-(dimethylamino)-3-((S)-3-phenylbutanamido)propyl)phenyl acetate] | < 300 nM | < 300 nM |  |  |  |
| CN1Cc2cc(O)ccc2C[C@H]1CNC(=O)C[C@H](c1ccccc1)C(C)(C)C [Compound 323, (S)-N-(((S)-7-hydroxy-2-methyl-1,2,3,4-tetrahydroisoquinolin-3-yl)methyl)-4,4-dimethyl-3-phenylpentanamide] | < 300 nM | < 300 nM |  |  |  |
| CC(C)C[C@H](CC(=O)NC[C@H](Cc1ccc(-c2cn[nH]c2)cc1Cl)N(C)C)c1ccccc1 [Compound 326, (3R)-N-[(2S)-3-[2-chloro-4-(1H-pyrazol-4-yl)phenyl]-2-(dimethylamino)propyl]-5-methyl-3-phenylhexanamide] |  |  |  | 300 to 3000 nM | > 3000 nM |
